For one data set, the system named is HBV. Nature of the data set: anti HBV activity, HepG2.117 inducibly HBV producing cell line (Tet-off), intracellular HBV DNA by realtime PCR. The class given is cell-based. As to conditions: Hepatitis B virus, 72 h, HepG2.117 cells, 3 days of treatment.
Data set [1] can be described thus: Cytotoxicity, HepG2 cells, Resazurin assay. The note with it: human. The class given is cell-based.

Each structure is given as a SMILES string.

Data on 28 molecules can be found in US11078193B2 (priority 2014, dated 2021).

For the molecule `Cn1cc(S(=O)(=O)NC2(C(F)(F)F)CCC2)c(F)c1C(=O)Nc1ccnc(C(F)F)c1` [Compound 119, N-[2-(difluoromethyl)-4-pyridyl]-3-fluoro-1-methyl-4-[[1-(trifluoromethyl)cyclobutyl]sulfamoyl]pyrrole-2-carboxamide], the EC50 (in general, the concentration at which the effect is half-maximal) in the data set on HBV stood at 5 nM. For the same molecule, in data set [1], the CC50 (as a rule, the concentration at which the toxic effect on the cells reaches its halfway point) at 4 days is greater than 25000 nM.
The corresponding values for `C[C@@H](NS(=O)(=O)c1cn(C)c(C(=O)Nc2ccc(F)nc2)c1Cl)C(F)(F)F` [Compound 50, 3-chloro-N-(6-fluoro-3-pyridyl)-1-methyl-4-[[(1R)-2,2,2-trifluoro-1-methyl-ethyl]sulfamoyl]pyrrole-2-carboxamide] are 200 nM and greater than 25000 nM.
The corresponding values for `Cn1cc(S(=O)(=O)N[C@H]2CCOC2)c(Cl)c1C(=O)Nc1ccnc(Cl)c1` [Compound 91, 3-chloro-N-(2-chloro-4-pyridyl)-1-methyl-4-[[(3S)-tetrahydrofuran-3-yl]sulfamoyl]pyrrole-2-carboxamide] are 200 nM and greater than 25000 nM.
As for `CC[C@@H](C)NS(=O)(=O)c1cn(C)c(C(=O)Nc2ccnc(C(F)F)c2)c1F` [Compound 86, N-[2-(difluoromethyl)-4-pyridyl]-3-fluoro-1-methyl-4-[[(1R)-1-methylpropyl]sulfamoyl]pyrrole-2-carboxamide], the EC50 with HBV is 40 nM. For the same molecule, in data set [1], the midpoint of cytotoxicity, the CC50 at 4 days, lay at 21600 nM.
For `Cn1cc(S(=O)(=O)NC2(C)CC(F)(F)C2)c(F)c1C(=O)Nc1ccnc(Br)c1` [Compound 117, N-(2-bromo-4-pyridyl)-4-[(3,3-difluoro-1-methyl-cyclobutyl)sulfamoyl]-3-fluoro-1-methyl-pyrrole-2-carboxamide] the same measures were 10 nM and greater than 25000 nM.
As for `C[C@@H](NS(=O)(=O)c1cn(C)c(C(=O)Nc2ccnc(Br)c2F)c1F)C(F)(F)F` [Compound 153, N-(2-bromo-3-fluoro-4-pyridyl)-3-fluoro-1-methyl-4-[[(1R)-2,2,2-trifluoro-1-methyl-ethyl]sulfamoyl]pyrrole-2-carboxamide], the EC50 with HBV was 20 nM. Besides, the CC50 at 4 days in data set [1] is greater than 25000 nM.
The corresponding values for `CC[C@@H](C)NS(=O)(=O)c1cn(C)c(C(=O)Nc2ccnc(Cl)c2)c1Cl` [Compound 73, 3-chloro-N-(2-chloro-4-pyridyl)-1-methyl-[[(1R)-1-methylpropyl]-sulfamoyl]pyrrole-2-carboxamide] are 90 nM and 21600 nM.
In turn, `Cc1cc(NC(=O)c2c(Cl)c(S(=O)(=O)N[C@H](C)C(F)(F)F)cn2C)cc(C)n1` [Compound 144, 3-chloro-N-(2,6-dimethyl-4-pyridyl)-1-methyl-4-[[(1R)-2,2,2-trifluoro-1-methyl-ethyl]sulfamoyl]pyrrole-2-carboxamide] registered an EC50 in the data set with HBV of 300 nM. Besides, the CC50 at 4 days in data set [1] was greater than 25000 nM.
The corresponding values for `CC[C@@H](C)NS(=O)(=O)c1cn(C)c(C(=O)Nc2ccnc(C(F)(F)F)c2)c1F` [Compound 68, 3-fluoro-1-methyl-4-[[(1R)-1-methylpropyl]sulfamoyl]-N-[2-(trifluoromethyl)-4-pyridyl]pyrrole-2-carboxamide] are 50 nM and greater than 25000 nM.
For `Cn1cc(S(=O)(=O)NC2(C)CC(F)(F)C2)c(Cl)c1C(=O)Nc1ccnc(Br)c1F` [Compound 161, N-(2-bromo-3-fluoro-4-pyridyl)-3-chloro-4-[(3,3-difluoro-1-methyl-cyclobutyl)sulfamoyl]-1-methyl-pyrrole-2-carboxamide] the same measures were 10 nM and greater than 25000 nM.
The corresponding values for `Cc1cc(NC(=O)c2c(Cl)c(S(=O)(=O)N[C@H](C)C(F)(F)F)cn2C)cc(Cl)n1` [Compound 141, 3-chloro-N-(2-chloro-6-methyl-4-pyridyl)-1-methyl-4-[[(1R)-2,2,2-trifluoro-1-methyl-ethyl]sulfamoyl]pyrrole-2-carboxamide] are 40 nM and greater than 25000 nM.
As to `Cc1cc(NC(=O)c2c(Cl)c(S(=O)(=O)NC3(C)CC(F)(F)C3)cn2C)cc(F)n1` [Compound 163, 3-chloro-4-[(3,3-difluoro-1-methyl-cyclobutyl)sulfamoyl]-N-(2-fluoro-6-methyl-4-pyridyl)-1-methyl-pyrrole-2-carboxamide], a half-maximal effect in the data set with HBV (EC50) was put at 20 nM. Besides, the CC50 at 4 days in data set [1] is greater than 25000 nM.
For `Cn1cc(S(=O)(=O)NC2(C(F)(F)F)CCC2)c(F)c1C(=O)Nc1ccnc(F)c1F` [Compound 170, N-(2,3-difluoro-4-pyridyl)-3-fluoro-1-methyl-4-[[1-(trifluoromethyl)cyclobutyl]sulfamoyl]pyrrole-2-carboxamide] the same measures were 40 nM and greater than 25000 nM.
For `C[C@@H](NS(=O)(=O)c1cn(C)c(C(=O)Nc2ccnc(C(F)F)c2F)c1Cl)C(C)(F)F` [Compound 147, 3-chloro-N-[2-(difluoromethyl)-3-fluoro-4-pyridyl]-4-[[(1R)-2,2-difluoro-1-methyl-propyl]sulfamoyl]-1-methyl-pyrrole-2-carboxamide] the same measures were 20 nM and greater than 25000 nM.
Molecule `C[C@@H](NS(=O)(=O)c1cn(C)c(C(=O)Nc2ccnc(Br)c2F)c1Cl)C(C)(F)F` [Compound 148, N-(2-bromo-3-fluoro-4-pyridyl)-3-chloro-4-[[(1R)-2,2-difluoro-1-methyl-propyl]sulfamoyl]-1-methyl-pyrrole-2-carboxamide] returned an EC50 with HBV of 20 nM. This molecule had a CC50 at 4 days in data set [1] greater than 25000 nM.
For `C[C@@H](NS(=O)(=O)c1cn(C)c(C(=O)Nc2cnc(F)c(F)c2)c1Cl)C(F)(F)F` [Compound 57, 3-chloro-N-(5,6-difluoro-3-pyridyl)-1-methyl-4-[[(1R)-2,2,2-trifluoro-1-methyl-ethyl]sulfamoyl]pyrrole-2-carboxamide] the same measures were 60 nM and greater than 25000 nM.
The corresponding values for `CC(C)NS(=O)(=O)c1cn(C)c(C(=O)Nc2ccnc(Cl)c2)c1F` [Compound 79, N-(2-chloro-4-pyridyl)-3-fluoro-4-(isopropylsulfamoyl)-1-methyl-pyrrole-2-carboxamide] are 150 nM and greater than 25000 nM.
As for `C[C@@H](NS(=O)(=O)c1cn(C)c(C(=O)Nc2cc(C#N)ccn2)c1Cl)C(F)(F)F` [Compound 183, 3-chloro-N-(4-cyano-2-pyridyl)-1-methyl-4-[[(1R)-2,2,2-trifluoro-1-methyl-ethyl]sulfamoyl]pyrrole-2-carboxamide], the EC50 in the data set with HBV amounted to 1400 nM. Besides, the cytotoxic concentration (CC50) at 4 days in data set [1] is greater than 25000 nM.
For `Cn1cc(S(=O)(=O)NC2(C(F)(F)F)CCC2)c(F)c1C(=O)Nc1ccnc(Cl)c1` [Compound 122, N-(2-chloro-4-pyridyl)-3-fluoro-1-methyl-4-[[1-(trifluoromethyl)cyclobutyl]sulfamoyl]pyrrole-2-carboxamide] the same measures were 10 nM and greater than 25000 nM.
For `C[C@@H](NS(=O)(=O)c1cn(C)c(C(=O)Nc2ccnc(C#N)c2F)c1F)C(F)(F)F` [Compound 155, N-(2-cyano-3-fluoro-4-pyridyl)-3-fluoro-1-methyl-4-[[(1R)-2,2,2-trifluoro-1-methyl-ethyl]sulfamoyl]pyrrole-2-carboxamide] the same measures were 20 nM and greater than 25000 nM.
The corresponding values for `Cn1cc(S(=O)(=O)NC2(C(F)(F)F)CCC2)c(F)c1C(=O)Nc1cc(F)nc(F)c1` [Compound 168, N-(2,6-difluoro-4-pyridyl)-3-fluoro-1-methyl-4-[[1-(trifluoromethyl)cyclobutyl]sulfamoyl]pyrrole-2-carboxamide] are 6 nM and greater than 25000 nM.
Turning to `Cn1cc(S(=O)(=O)NC2(C)CC(F)(F)C2)c(F)c1C(=O)Nc1cc(Br)nc(Br)c1` [Compound 135, N-(2,6-dibromo-4-pyridyl)-4-[(3,3-difluoro-1-methyl-cyclobutyl)sulfamoyl]-3-fluoro-1-methyl-pyrrole-2-carboxamide], the EC50 in the data set on HBV is 180 nM. The CC50 at 4 days in data set [1] came out at 13000 nM.
As for `CC(O)C(C)NS(=O)(=O)c1cn(C)c(C(=O)Nc2ccnc(Cl)c2)c1Cl` (racemic) [Compound 90, (+/−)-3-chloro-N-(2-chloro-4-pyridyl)-4-[(2-hydroxy-1-methyl-propyl)sulfamoyl]-1-methyl-pyrrole-2-carboxamide], the EC50 in the data set with HBV was determined as 450 nM. The CC50 at 4 days in data set [1] is greater than 25000 nM.
For `C[C@@H](NS(=O)(=O)c1cn(C)c(C(=O)Nc2ccnc(Cl)c2F)c1Cl)C(C)(F)F` [Compound 107, 3-chloro-N-(2-chloro-3-fluoro-4-pyridyl)-4-[[(1R)-2,2-difluoro-1-methyl-propyl]sulfamoyl]-1-methyl-pyrrole-2-carboxamide] the same measures were 20 nM and greater than 25000 nM.
The corresponding values for `C[C@@H](NS(=O)(=O)c1cn(C)c(C(=O)Nc2ccc(F)c(Br)n2)c1Cl)C(F)(F)F` [Compound 76, N-(6-bromo-5-fluoro-2-pyridyl)-3-chloro-1-methyl-4-[[(1R)-2,2,2-trifluoro-1-methyl-ethyl]sulfamoyl]pyrrole-2-carboxamide] are 50 nM and greater than 25000 nM.
Turning to `C[C@@H](NS(=O)(=O)c1cn(C)c(C(=O)Nc2ccc(F)c(C#N)n2)c1Cl)C(F)(F)F` [Compound 156, 3-chloro-N-(6-cyano-5-fluoro-2-pyridyl)-1-methyl-4-[[(1R)-2,2,2-trifluoro-1-methyl-ethyl]sulfamoyl]pyrrole-2-carboxamide], in the data set on HBV, the EC50 turned out to be 140 nM. The CC50 at 4 days in data set [1] is greater than 25000 nM.
Molecule `C[C@@H](NS(=O)(=O)c1cc(C(=O)Nc2ccnc(Cl)c2)n(C)c1)C(C)(F)F` [Compound 103, N-(2-chloro-4-pyridyl)-4-[[(1R)-2,2-difluoro-1-methyl-propyl]sulfamoyl]-1-methyl-pyrrole-2-carboxamide] showed an EC50 in the data set with HBV of 140 nM. This molecule also gave a CC50 at 4 days in data set [1] greater than 25000 nM.
In the data set with HBV, `Cn1cc(S(=O)(=O)NC2(C(F)(F)F)CC2)cc1C(=O)Nc1ccnc(Cl)c1` [Compound 52, N-(2-chloro-4-pyridyl)-1-methyl-4-[[1-(trifluoromethyl)cyclopropyl]-sulfamoyl]pyrrole-2-carboxamide] displayed an EC50 of 80 nM. The same molecule gave a CC50 at 4 days in data set [1] greater than 25000 nM.
